{
  "source": "ChEMBL document CHEMBL1201862",
  "about": "“PubChem BioAssay data set” (2004)",
  "assay_in_all_cases": "inhibition of tumour cell growth, NCI panel, 48 h",
  "key": {"[1]": {"system": "A498"}, "[2]": {"system": "A549"}, "[3]": {"system": "ACHN"}, "[4]": {"system": "CAKI-1"}, "[5]": {"system": "CCRF-CEM"}, "[6]": {"system": "COLO 205"}, "[7]": {"system": "DLD-1"}, "[8]": {"system": "DMS-114"}, "[9]": {"system": "DMS-273"}, "[10]": {"system": "EKVX"}, "[11]": {"system": "HCC 2998"}, "[12]": {"system": "HCT-116"}, "[13]": {"system": "HCT-15"}, "[14]": {"system": "HL-60"}, "[15]": {"system": "HOP-18"}, "[16]": {"system": "HOP-62"}, "[17]": {"system": "HOP-92"}, "[18]": {"system": "HT-29"}, "[19]": {"system": "IGROV-1"}, "[20]": {"system": "K562"}, "[21]": {"system": "KM-20L2"}, "[22]": {"system": "KM12"}, "[23]": {"system": "LOX IMVI"}, "[24]": {"system": "LXFL 529"}, "[25]": {"system": "M14"}, "[26]": {"system": "MOLT-4"}, "[27]": {"system": "Malme-3M"}, "[28]": {"system": "NCI-H226"}, "[29]": {"system": "NCI-H23"}, "[30]": {"system": "NCI-H460"}, "[31]": {"system": "NCI-H522"}, "[32]": {"system": "OVCAR-3"}, "[33]": {"system": "OVCAR-4"}, "[34]": {"system": "OVCAR-5"}, "[35]": {"system": "OVCAR-8"}, "[36]": {"system": "RPMI-8226"}, "[37]": {"system": "RXF 393"}, "[38]": {"system": "SF-268"}, "[39]": {"system": "SF-295"}, "[40]": {"system": "SF-539"}, "[41]": {"system": "SK-MEL-28"}, "[42]": {"system": "SK-MEL-2"}, "[43]": {"system": "SK-MEL-5"}, "[44]": {"system": "SK-OV-3"}, "[45]": {"system": "SN12C"}, "[46]": {"system": "SNB-19"}, "[47]": {"system": "SNB-75"}, "[48]": {"system": "SNB-78"}, "[49]": {"system": "SR"}, "[50]": {"system": "SW-620"}, "[51]": {"system": "TK-10"}, "[52]": {"system": "U-251"}, "[53]": {"system": "UACC-257"}, "[54]": {"system": "UACC-62"}, "[55]": {"system": "UO-31"}, "[56]": {"system": "XF498"}},
  "note": "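Assay format: 96-well plates, 48-hour exposure. GI50: concentration for 50% inhibition of growth.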 Calls of active or inactive are those of the source. No stated cut-off is given here; in the data, active = GI50 up to about 1.1 µM and inactive = higher.",
  "data": [
    {"smiles": "CC1=C(C(=O)NCc2ccccc2)C(c2ccco2)C(C(=O)NCc2ccccc2)=C(C)N1", "values": [
      {"measurement": "GI50", "setting": "[1]", "result": "> 100 µM (inactive)"},
      {"measurement": "GI50", "setting": "[2]", "result": "> 100 µM (inactive)"},
      {"measurement": "GI50", "setting": "[3]", "result": "31.5 µM (inactive)"},
      {"measurement": "GI50", "setting": "[4]", "result": "57.5 µM (inactive)"},
      {"measurement": "GI50", "setting": "[5]", "result": "45.8 µM (inactive)"},
      {"measurement": "GI50", "setting": "[6]", "result": "> 100 µM (inactive)"},
      {"measurement": "GI50", "setting": "[7]", "result": "> 100 µM (inactive)"},
      {"measurement": "GI50", "setting": "[8]", "result": "48.5 µM (inactive)"},
      {"measurement": "GI50", "setting": "[9]", "result": "66.8 µM (inactive)"},
      {"measurement": "GI50", "setting": "[10]", "result": "> 100 µM (inactive)"},
      {"measurement": "GI50", "setting": "[11]", "result": "47 µM (inactive)"},
      {"measurement": "GI50", "setting": "[12]", "result": "71.4 µM (inactive)"},
      {"measurement": "GI50", "setting": "[13]", "result": 52.8, "unit": "µM"},
      {"measurement": "GI50", "setting": "[14]", "result": "17.8 µM (inactive)"},
      {"measurement": "GI50", "setting": "[15]", "result": "> 100 µM (inactive)"},
      {"measurement": "GI50", "setting": "[16]", "result": "65.3 µM (inactive)"},
      {"measurement": "GI50", "setting": "[17]", "result": "92.9 µM (inactive)"},
      {"measurement": "GI50", "setting": "[18]", "result": "53.8 µM (inactive)"},
      {"measurement": "GI50", "setting": "[19]", "result": "> 100 µM (inactive)"},
      {"measurement": "GI50", "setting": "[20]", "result": "30.3 µM (inactive)"},
      {"measurement": "GI50", "setting": "[21]", "result": "32.5 µM (inactive)"},
      {"measurement": "GI50", "setting": "[22]", "result": "33.8 µM (inactive)"},
      {"measurement": "GI50", "setting": "[23]", "result": "77.3 µM (inactive)"},
      {"measurement": "GI50", "setting": "[24]", "result": "42.6 µM (inactive)"},
      {"measurement": "GI50", "setting": "[25]", "result": "57 µM (inactive)"},
      {"measurement": "GI50", "setting": "[26]", "result": "23 µM (inactive)"},
      {"measurement": "GI50", "setting": "[27]", "result": "> 100 µM (inactive)"},
      {"measurement": "GI50", "setting": "[28]", "result": "> 100 µM (inactive)"},
      {"measurement": "GI50", "setting": "[29]", "result": "> 100 µM (inactive)"},
      {"measurement": "GI50", "setting": "[30]", "result": "> 100 µM (inactive)"},
      {"measurement": "GI50", "setting": "[31]", "result": "85.1 µM (inactive)"},
      {"measurement": "GI50", "setting": "[32]", "result": "> 100 µM (inactive)"},
      {"measurement": "GI50", "setting": "[33]", "result": "55.7 µM (inactive)"},
      {"measurement": "GI50", "setting": "[34]", "result": "> 100 µM (inactive)"},
      {"measurement": "GI50", "setting": "[35]", "result": "78.5 µM (inactive)"},
      {"measurement": "GI50", "setting": "[36]", "result": "> 100 µM (inactive)"},
      {"measurement": "GI50", "setting": "[37]", "result": "66.8 µM (inactive)"},
      {"measurement": "GI50", "setting": "[38]", "result": "80.4 µM (inactive)"},
      {"measurement": "GI50", "setting": "[39]", "result": "56.9 µM (inactive)"},
      {"measurement": "GI50", "setting": "[40]", "result": "> 100 µM (inactive)"},
      {"measurement": "GI50", "setting": "[41]", "result": "> 100 µM (inactive)"},
      {"measurement": "GI50", "setting": "[42]", "result": "27.6 µM (inactive)"},
      {"measurement": "GI50", "setting": "[43]", "result": "> 100 µM (inactive)"},
      {"measurement": "GI50", "setting": "[44]", "result": "> 100 µM (inactive)"},
      {"measurement": "GI50", "setting": "[45]", "result": "91.6 µM (inactive)"},
      {"measurement": "GI50", "setting": "[46]", "result": "> 100 µM (inactive)"},
      {"measurement": "GI50", "setting": "[47]", "result": "> 100 µM (inactive)"},
      {"measurement": "GI50", "setting": "[48]", "result": "> 100 µM (inactive)"},
      {"measurement": "GI50", "setting": "[49]", "result": "> 100 µM (inactive)"},
      {"measurement": "GI50", "setting": "[50]", "result": "50.9 µM (inactive)"},
      {"measurement": "GI50", "setting": "[51]", "result": "57.4 µM (inactive)"},
      {"measurement": "GI50", "setting": "[52]", "result": "> 100 µM (inactive)"},
      {"measurement": "GI50", "setting": "[53]", "result": "> 100 µM (inactive)"},
      {"measurement": "GI50", "setting": "[54]", "result": "17.3 µM (inactive)"},
      {"measurement": "GI50", "setting": "[55]", "result": "> 100 µM (inactive)"},
      {"measurement": "GI50", "setting": "[56]", "result": "> 100 µM (inactive)"}
    ]}
  ]
}
